Source: patent US20220281848A1, “PYRAZOLE-SUBSTITUTED PYRROLIDINONES AS HERBICIDES” (FMC Corporation, priority 2019, published 2022)

Test system: plants
Assay: Test D pre-emergence, other plants of Tables D1 and D3
Type: in vivo
Conditions: pre-emergence, 100=total damage, 0=no damage
In short: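 Seeds treated with herbicide safener; sown in soil; glasshouse, 16 h light, 65% humidity. Sprayed day 1 (pre) or ~day 12 (post). Spray in 0.2% v/v adjuvant. Scored 0–100 damage: 20 DAA pre, 15 d post.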

## CCn1nc([C@H]2CN(C)C(=O)[C@@H]2C(=O)Nc2cccc(F)c2F)c2ccc(F)cc21 [Compound 4]
Rate 15, 20 DAA
  damage to plant, BEAVA: 0
  damage to plant, BROTE: 0
  damage to plant, BRSNN: 0
  damage to plant, CHEAL: 0
  damage to plant, GALAP: 0
  damage to plant, HORVW: 0
  damage to plant, KCHSC: 0
  damage to plant, LOLPE: 0
  damage to plant, POAAN: 0
  damage to plant, POLCO: 0
  damage to plant, SINAR: 0
  damage to plant, STEME: 0
  damage to plant, VERPE: 0
Rate 30, 20 DAA
  damage to plant, ALOMY: 0
  damage to plant, AVEFA: 0
  damage to plant, BEAVA: 0
  damage to plant, BROTE: 0
  damage to plant, BRSNN: 0
  damage to plant, CHEAL: 0
  damage to plant, GALAP: 0
  damage to plant, HORVW: 0
  damage to plant, KCHSC: 0
  damage to plant, LOLPE: 0
  damage to plant, POAAN: 0
  damage to plant, POLCO: 0
  damage to plant, SINAR: 0
  damage to plant, STEME: 0
  damage to plant, VERPE: 0
Rate 60, 20 DAA
  damage to plant, ALOMY: 0
  damage to plant, AVEFA: 0
  damage to plant, BEAVA: 0
  damage to plant, BROTE: 0
  damage to plant, BRSNN: 0
  damage to plant, CHEAL: 0
  damage to plant, GALAP: 0
  damage to plant, HORVW: 0
  damage to plant, KCHSC: 0
  damage to plant, LOLPE: 0
  damage to plant, POAAN: 40
  damage to plant, POLCO: 0
  damage to plant, SINAR: 0
  damage to plant, STEME: 0
  damage to plant, VERPE: 0
Rate 130, 20 DAA
  damage to plant, ALOMY: 0
  damage to plant, AVEFA: 0
  damage to plant, BEAVA: 0
  damage to plant, BROTE: 0
  damage to plant, BRSNN: 0
  damage to plant, CHEAL: 0
  damage to plant, GALAP: 0
  damage to plant, HORVW: 0
  damage to plant, KCHSC: 0
  damage to plant, LOLPE: 0
  damage to plant, POAAN: 50
  damage to plant, POLCO: 0
  damage to plant, SINAR: 0
  damage to plant, STEME: 0
  damage to plant, VERPE: 0
Rate 250, 20 DAA
  damage to plant, ALOMY: 0
  damage to plant, AVEFA: 0
  damage to plant, BEAVA: 0
  damage to plant, BROTE: 0
  damage to plant, BRSNN: 0
  damage to plant, CHEAL: 0
  damage to plant, GALAP: 0
  damage to plant, HORVW: 0
  damage to plant, KCHSC: 0
  damage to plant, LOLPE: 0
  damage to plant, POAAN: 80
  damage to plant, POLCO: 0
  damage to plant, SINAR: 0
  damage to plant, STEME: 0
  damage to plant, VERPE: 0
Rate 500, 20 DAA
  damage to plant, ALOMY: 40
  damage to plant, AVEFA: 10
  damage to plant, BEAVA: 0
  damage to plant, BROTE: 10
  damage to plant, BRSNN: 10
  damage to plant, CHEAL: 0
  damage to plant, GALAP: 0
  damage to plant, HORVW: 20
  damage to plant, KCHSC: 0
  damage to plant, LOLPE: 0
  damage to plant, POAAN: 90
  damage to plant, POLCO: 20
  damage to plant, SINAR: 30
  damage to plant, STEME: 0
  damage to plant, VERPE: 0
